In ChEMBL document CHEMBL1128024, “Carbocyclic analogues of hydroxyethylamine containing inhibitors of HIV proteinase” (Bioorg Med Chem Lett, 1994) one finds IC50 data, which are given here for six molecules.

A word on the IC50: it is the point on the concentration scale where inhibition reaches its midpoint. A higher IC50 goes with weaker potency.

Assay [1] addresses Human immunodeficiency virus type 1 protease (Human immunodeficiency virus 1, UniProt Q72874). Nature of the assay: Inhibitory activity against HIV-1 Protease was determined.
Assay [2] deals with Human immunodeficiency virus. As to the kind of experiment: In vitro antiviral activity against human immuno deficiency virus was determined. Format: functional, organism-based. The note with it: Human immunodeficiency virus 1.

As to `CC(C)(C)NC(=O)[C@@H]1CCCCN1C[C@@H](O)[C@H](Cc1ccccc1)NC(=O)[C@H](CC(N)=O)NC(=O)c1ccc2ccccc2n1`, the IC50 in assay [1] worked out at 0.002 µM; in assay [2] it was 0.017 µM.

In turn, `CC(C)(C)NC(=O)[C@@H]1CCCC[C@@H]1C[C@@H](O)[C@H](Cc1ccccc1)NC(=O)[C@H](CC(N)=O)NC(=O)OCc1ccccc1` returned an IC50 in assay [2] of 1 µM.

In the case of `CC(C)(C)NC(=O)[C@@H]1CCCC[C@H]1C[C@@H](O)[C@H](Cc1ccccc1)NC(=O)[C@H](CC(N)=O)NC(=O)c1ccc2ccccc2n1`, in assay [2], the IC50 was 0.004 µM.

With `CC(C)(C)NC(=O)[C@@H]1CCCCN1C[C@@H](O)[C@H](Cc1ccccc1)NC(=O)[C@H](CC(N)=O)NC(=O)OCc1ccccc1`, inhibition in assay [2] was half-maximal at 0.3 µM (IC50).

In turn, `CC(C)(C)NC(=O)[C@@H]1CCCC[C@H]1C[C@@H](O)[C@H](Cc1ccccc1)NC(=O)[C@H](CC(N)=O)NC(=O)OCc1ccccc1` (mixture of isomers) returned an IC50 in assay [2] of 0.04 µM.

`CC(C)(C)NC(=O)[C@@H]1C[C@@H]2CCCCC2CN1C[C@@H](O)[C@H](Cc1ccccc1)NC(=O)[C@H](CC(N)=O)NC(=O)c1ccc2ccccc2n1` (single isomer, unassigned) registered an IC50 in assay [2] of 0.002 µM.
